Laboratory results from patent publication US5254558A, “Substituted 1,3-diazines as leukocyte elastase inhibitors” (Imperial Chemical Industries PLC, priority 1991, dated 1993).

Tests used:
HLE = assay: in vivo tests (Acute Lung Injury Model, Acute Hemorrhagic Assay); details: basis for compounds of particular interest
[1] = molecular target: T1, human leukocyte elastase (HLE) (Homo sapiens, UniProt P08246); assay: Inhibition measurements: Ki against HLE on substrate methoxy-succinyl-alanyl-alanyl-prolyl-valine-p-nitroanilide; assay type: biochemical; details: read-out: Ki, dissociation constant of the complex of inhibitor with HLE
T1 sequence (P08246 30-247 limits assumed): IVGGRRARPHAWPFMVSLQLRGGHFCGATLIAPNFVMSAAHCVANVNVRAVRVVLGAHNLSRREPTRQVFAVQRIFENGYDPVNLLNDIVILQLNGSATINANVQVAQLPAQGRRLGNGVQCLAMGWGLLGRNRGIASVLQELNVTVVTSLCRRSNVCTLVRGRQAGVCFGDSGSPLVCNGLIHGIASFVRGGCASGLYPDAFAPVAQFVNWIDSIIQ
Method: The potency of a Compound to act as an inhibitor of human leukocyte elastase (HLE) on the low molecular weight peptide substrate methoxy-succinyl-alanyl-alanyl-prolyl-valine-p-nitroanilide is determined as described in U.S. Pat. No. 4,910,190. The potency of an inhibitor is evaluated by obtaining a kinetic determination of the dissociation constant, Ki, of the complex formed from the interaction of the inhibitor with HLE. If a Compound is found to be a "slow-binding" inhibitor of HLE, special methods of analysis to accurately determine Ki values for the inhibition of HLE are carried out as described in U.S. Pat. No. 4,910,190. In general, the Ki values for Compounds of the invention which were tested are generally on the order of 10^-7 M or much less.

[2] = test system: human neutrophil elastase (HNE); assay: Acute Hemorrhagic Assay: lung hemorrhage after intratracheal HNE in hamsters; assay type: in vivo, hamster; details: 2.5 mg/kg by mouth, male Syrian hamsters
Method: This assay relies on monitoring only the amount of hemorrhage in the lung following intratracheal administration of human neutrophil elastase (HNE). Hemorrhage is quantified by disrupting erythrocytes recovered in lung lavage fluid and comparing that to dilutions of whole hamster blood. The screening protocol, similar to that described in Fletcher et al., American Review of Respiratory Disease (1990), 141, 672-677, is as follows. […] The compounds are then dosed by mouth to male Syrian hamsters at a fixed time, such as 30 or 90 min, prior to intratracheal administration of 50 μg/animal of HNE in 300 μL phosphate buffered saline (PBS) pH 7.4. Four hours enzyme administration, the animals are killed with an overdose of pentobarbital sodium, the thorax opened and the lungs and trachea removed. […] The recovered lavages are pooled, the volumes (about 5 mL) are recorded and the lavages stored at 4° C. until assayed. […] The optical densities (OD) of the disrupted lavages and blood samples are determined at 405 nm. The (μL blood equivalents)/(mL lavage) are determined by comparing the OD of the test samples with the OD of the standard curve prepared from whole hamster blood. The total μL equivalents of blood recovered is determined by multiplying recovered lavage volume by the (μL blood equivalents)/(mL lavage) for each sample. […]

SMILES | activity in in vivo tests (HLE) | further results
CC(C)C(NC(=O)Cn1c(-c2cccs2)ncc(N)c1=O)C(=O)C(F)(F)F (centres unmarked) [Example 12, 2-[5-Amino-6-oxo-2-(2-thienyl)-1,6-dihydro-1-pyrimidinyl]-N-(3,3,3-trifluoro-1-isopropyl-2-oxopropyl)acetamide] | activity in in vivo tests | 
CSC(=O)Nc1cnc(-c2ccc(F)cc2)n(CC(=O)NC(C(=O)C(F)(F)F)C(C)C)c1=O (centres unmarked) [Example 102] | activity in in vivo tests | 
CCNc1cnc(-c2cccs2)n(CC(=O)NC(C(=O)C(F)(F)F)C(C)C)c1=O (centres unmarked) [Example 82] | activity in in vivo tests | 
CC(C)C(NC(=O)Cn1c(-c2cccs2)ncc(NC=O)c1=O)C(=O)C(F)(F)F (centres unmarked) [Example 157] | activity in in vivo tests | 
CC(C)OC(=O)Nc1cnc(-c2cccs2)n(CC(=O)NC(C(=O)C(F)(F)F)C(C)C)c1=O (centres unmarked) [Example 51] | activity in in vivo tests | Ki [1]: 0.027 µM; inhibition of hemorrhage ([2]; 30 min prior to HNE): statistically significant inhibition of hemorrhage; inhibition of hemorrhage ([2]; 90 min prior to HNE): statistically significant inhibition of hemorrhage
CSC(=O)Nc1cnc(-c2ccccc2)n(CC(=O)NC(C(=O)C(F)(F)F)C(C)C)c1=O (centres unmarked) [Example 100] | activity in in vivo tests | 
CC(C)C(NC(=O)Cn1c(-c2cccs2)ncc(NC(=O)OCC(F)(F)F)c1=O)C(=O)C(F)(F)F (centres unmarked) [Example 106] | activity in in vivo tests | 
CC(C)C(NC(=O)Cn1c(-c2ccccc2)ncc(NC=O)c1=O)C(=O)C(F)(F)F (centres unmarked) [Example 159] | activity in in vivo tests | 
